Measurements from US20160089348A1, “USE OF AN S1P RECEPTOR AGONIST” (priority 2009, published 2016).

Experiments:
[1] = tested on: patients with relapsing-remitting MS (RRMS); assay: MRI lesion measures (Gd-enhancing, T2, T1 hypointense lesions) in clinical study of daily oral fingolimod vs placebo; format: in vivo, human; conditions: for T1 hypointense lesion volume, months 0-24 - % change, Mean ± SD / T1 hypointense lesion volume, months 0-24 - % change, Median (range) / T2 lesion volume, months 0-24 - % change, Mean ± SD / T2 lesion volume, months 0-24 - % change, Median (range) / Patients free from new or enlarged T2 lesions, months 0-24 - (%) / Patients free from new or enlarged T2 lesions, months 0-24 - no.: RRMS patients
Description: Annualized relapse rate (ARR) over 24 months (primary endpoint) and time to disability progression (key secondary endpoint) is assessed in patients with relapsing-remitting MS (RRMS). Patients aged 18-55 years with an Expanded Disability Status Scale score 0-5.5, relapse in the previous year (or ≧2 in the previous 2 years) are randomized to daily oral fingolimod 1.25 mg or 0.5 mg, or placebo. […] The brain volume changes for months 0 to 12 is measured using SIENA software.

[2] = tested on: patients with relapsing-remitting MS (RRMS); assay: Brain volume change (brain atrophy) by MRI using SIENA software in clinical study of daily oral fingolimod vs placebo; format: in vivo, human; conditions: for Brain volume, Percent change from Month 12 to Month 24, Mean (SD) / Brain volume, Percent change from Month 12 to Month 24, Median / Brain volume, Percent change from baseline to Month 24, Mean (SD) / Brain volume, Percent change from baseline to Month 24, Median / Brain volume, Percent change from baseline to Month 12, Mean (SD) / Brain volume, Percent change from baseline to Month 12, Median / Brain volume, Percent change from baseline to Month 6, Mean (SD) / Brain volume, Percent change from baseline to Month 6, Median: RRMS patients
Description: Annualized relapse rate (ARR) over 24 months (primary endpoint) and time to disability progression (key secondary endpoint) is assessed in patients with relapsing-remitting MS (RRMS). Patients aged 18-55 years with an Expanded Disability Status Scale score 0-5.5, relapse in the previous year (or ≧2 in the previous 2 years) are randomized to daily oral fingolimod 1.25 mg or 0.5 mg, or placebo. […]

[3] = fingolimod 0.5 mg daily oral, N = 346 with MRI data
[4] = fingolimod 0.5 mg daily oral, N = 368 with MRI data
[5] = fingolimod 0.5 mg daily oral, N = 425
[6] = fingolimod 1.25 mg daily oral, N = 317 with MRI data
[7] = fingolimod 1.25 mg daily oral, N = 343 with MRI data
[8] = fingolimod 1.25 mg daily oral, N = 429
[9] = both fingolimod groups (1.25 mg, 0.5 mg), at 6, 12 and 24 months
[10] = FTY720 0.5 mg daily oral, n 356
[11] = FTY720 0.5 mg daily oral, n 357
[12] = FTY720 0.5 mg daily oral, n 383
[13] = FTY720 0.5 mg daily oral, n 395
[14] = FTY720 1.25 mg daily oral, n 327
[15] = FTY720 1.25 mg daily oral, n 334
[16] = FTY720 1.25 mg daily oral, n 371
[17] = FTY720 1.25 mg daily oral, n 384
[18] = fingolimod-treated patients, baseline to month 24

CCCCCCCCc1ccc(CCC(N)(CO)CO)cc1.Cl [fingolimod, 2-amino-2-[2-(4-octylphenyl)ethyl]propane-1,3-diol]
T1 hypointense lesion volume, months 0-24 - % change, Mean ± SD [1, 3]: 8.8 ± 76.27%
T1 hypointense lesion volume, months 0-24 - % change, Median (range) [1, 3]: 0.00 (−100.0-1037.1) %
T2 lesion volume, months 0-24 - % change, Mean ± SD [1, 4]: 10.6 ± 103.46%
T2 lesion volume, months 0-24 - % change, Median (range) [1, 4]: −1.69 (−100.0-1828.5) %
Patients free from new or enlarged T2 lesions, months 0-24 - (%) [1, 5]: 50.5%
Patients free from new or enlarged T2 lesions, months 0-24 - no. [1, 5]: 187
T1 hypointense lesion volume, months 0-24 - % change, Mean ± SD [1, 6]: 12.2 ± 85.49%
T1 hypointense lesion volume, months 0-24 - % change, Median (range) [1, 6]: −0.20 (−100.0-888.4) %
T2 lesion volume, months 0-24 - % change, Mean ± SD [1, 7]: 1.6 ± 30.71%
T2 lesion volume, months 0-24 - % change, Median (range) [1, 7]: −3.10 (−68.2-221.5) %
Patients free from new or enlarged T2 lesions, months 0-24 - (%) [1, 8]: 51.9%
Patients free from new or enlarged T2 lesions, months 0-24 - no. [1, 8]: 175
Proportions of patients free from new or enlarged T2 lesions versus placebo ([1]; both fingolimod doses, over 24 months): greater proportions of patients are free from these lesions
Gd-enhancing lesions versus placebo group [1, 9]: significantly fewer Gd-enhancing lesions than those in the placebo group
Patients free from Gd-enhancing lesions versus placebo [1, 9]: proportionately more patients are free from Gd-enhancing lesions
New or enlarged T2 lesions versus placebo ([1]; fingolimod 0.5 mg or 1.25 mg, over 24 months): Fewer new or enlarged T2 lesions
Volume of T2 lesions, change from baseline to month 24 ([1]; fingolimod-treated patients, increases with placebo): decreases
Brain volume, Percent change from Month 12 to Month 24, Mean (SD) [2, 10]: −0.370 (0.8073) %
Brain volume, Percent change from Month 12 to Month 24, Median [2, 10]: −0.340%
Brain volume, Percent change from baseline to Month 24, Mean (SD) [2, 11]: −0.843 (1.3120) %
Brain volume, Percent change from baseline to Month 24, Median [2, 11]: −0.670%
Brain volume, Percent change from baseline to Month 12, Mean (SD) [2, 12]: −0.500 (1.0509) %
Brain volume, Percent change from baseline to Month 12, Median [2, 12]: −0.380%
Brain volume, Percent change from baseline to Month 6, Mean (SD) [2, 13]: −0.224 (0.8131) %
Brain volume, Percent change from baseline to Month 6, Median [2, 13]: −0.140%
Brain volume, Percent change from Month 12 to Month 24, Mean (SD) [2, 14]: −0.423 (0.8284) %
Brain volume, Percent change from Month 12 to Month 24, Median [2, 14]: −0.380%
Brain volume, Percent change from baseline to Month 24, Mean (SD) [2, 15]: −0.885 (1.3857) %
Brain volume, Percent change from baseline to Month 24, Median [2, 15]: −0.700%
Brain volume, Percent change from baseline to Month 12, Mean (SD) [2, 16]: −0.438 (1.0792) %
Brain volume, Percent change from baseline to Month 12, Median [2, 16]: −0.300%
Brain volume, Percent change from baseline to Month 6, Mean (SD) [2, 17]: −0.209 (0.8649) %
Brain volume, Percent change from baseline to Month 6, Median [2, 17]: −0.120%
Reduction in atrophy rate versus placebo [2, 18]: 30%
Reduction in brain volume versus placebo group [2, 18]: significantly less reduction in brain volume than those in the placebo group
